What was measured:
BA.2 pseudovirus = conditions: read-out: Inhibitory activity, IC50 (nM) BA.2, Caco2 target cells
BA.2.75 pseudovirus = conditions: read-out: Inhibitory activity, IC50 (nM) BA.2.75, Caco2 target cells
BA.2.86 pseudovirus = conditions: read-out: Inhibitory activity, IC50 (nM) BA.2.86, Caco2 target cells
XBB.1.5 pseudovirus = conditions: read-out: Inhibitory activity, IC50 (nM) XBB.1.5, Caco2 target cells
EG.5 pseudovirus = conditions: read-out: Inhibitory activity, IC50 (nM) EG.5, Caco2 target cells

Structure (SMILES): CC[C@H](C)[C@H](NC(=O)[C@H](C)NC(=O)[C@H](CCC(=O)O)NC(=O)[C@H](CCC(=O)O)NC(=O)[C@H](CC(C)C)NC(=O)[C@H](CCCCN)NC(=O)[C@H](CCCCN)NC(=O)[C@H](CCSC)NC(=O)[C@H](CCC(=O)O)NC(=O)[C@H](Cc1ccc(O)cc1)NC(=O)[C@H](CCC(=O)O)NC(=O)[C@H](CC(C)C)NC(=O)[C@H](CC(=O)O)NC(=O)[C@H](CC(C)C)NC(=O)[C@H](Cc1ccccc1)NC(=O)[C@@H](NC(=O)[C@@H](NC(=O)[C@H](CC(N)=O)NC(=O)[C@@H](NC(=O)[C@H](CCC(N)=O)NC(=O)[C@H](CC(=O)O)NC(=O)[C@H](CC(C)C)NC(=O)[C@H](CO)NC(C)=O)[C@@H](C)CC)C(C)C)[C@@H](C)O)C(=O)N[C@@H](CCCCN)C(=O)N[C@@H](CCCCN)C(=O)N[C@@H](CC(C)C)C(=O)N[C@@H](CCC(=O)O)C(=O)N[C@@H](CCC(=O)O)C(=O)N[C@@H](CO)C(=O)N[C@@H](Cc1ccc(O)cc1)C(=O)N[C@H](C(=O)N[C@@H](CC(=O)O)C(=O)N[C@@H](CC(C)C)C(=O)N[C@@H](CCCCN)C(=O)N[C@@H](CCC(=O)O)C(=O)N[C@@H](CC(C)C)C(N)=O)[C@@H](C)CC [EK1]
- IC50 (BA.2 pseudovirus): 228 nM
- IC50 (BA.2.75 pseudovirus): 438 nM
- IC50 (BA.2.86 pseudovirus): 392 nM
- IC50 (XBB.1.5 pseudovirus): 291 nM
- IC50 (EG.5 pseudovirus): 401 nM

From patent EP4722231A1, “BIOSYNTHESIS METHOD FOR BROAD-SPECTRUM ANTIVIRAL POLYPEPTIDE” (Shanxi Jinbo Bio-Pharmaceutical Co., Ltd., priority 2023, dated 2025)
